In US20140289906A1, “Compositions Having Dicamba Decarboxylase Activity and Methods of Use” (priority 2013, published 2014):

System: Arabidopsis ecotype Columbia (Col-0)
Test: Arabidopsis root growth inhibition assay
Settings: 6 days
Description: Phytotoxicity of other major dicamba decarboxylaed products was evaluated using Arabidopsis root growth inhibition assay. 4-chloro-3-methoxy phenol was purchased from Biogene Organics, Inc. (catalog number U06-642-79). 2,5-dichloro phenol was purchased from Sigma-Aldrich (catalog number D70007). Briefly, seeds of Arabidopsis ecotype Columbia (Col-0) were surface sterilized with 70% (v/v) ethanol for 5 minutes and 10% (v/v) bleach for 15 minutes. After being washed three times with distilled water, the seeds were germinated on 1× Murashige and Skoog (MS) medium with a pH of 5.7, 3% (w/v) sucrose, and 0.8% (w/v) agar. After incubation for 3.5 days, the seedlings were transferred to 1×MS medium containing B5 vitamin, 3% (w/v) sucrose, 1.2% (w/v) agar, and filter sterilized compounds was added to the media at 60° C. The concentrations of compounds including dicamba were 0 μM, 1.0 μM, and 10 μM. The seedlings were placed vertically, and the temperature maintained at 23° C. to allow root growth along the surface of the agar, with a photoperiod of 16 h of light and 8 h of dark.

SMILES: Oc1cc(Cl)ccc1Cl [2,5-dichloro phenol]
- Arabidopsis root growth (1.0 uM in MS medium): did not have any effect
- Arabidopsis root growth (10 uM in MS medium): did not have any effect
